Data taken from US12403132B2, “Methods of treating bone marrow failure syndromes and compositions for use in the same” (The Board of Trustees of the Leland Stanford Junior …, priority 2020, dated 2025).

Tested on: CD235+ erythroblasts
Experiment: CD235+ erythroid expansion of differentiating human cord blood CD34+ progenitors (shRPS19/shRPL11 DBA models), flow cytometry
Format: cell-based
Settings: for CD235+ erythroid expansion in RPS19-insufficiency, % of control: 6.6% of controls (shLuc) untreated; for increase of erythroid expansion in RPS19-insufficiency: concentrations published to block TGFβ signaling, 15 days; for fold increase of erythroid expansion in response to SD208: 5 μM
Method: FIG. 7. […] (a) Differentiating cord blood CD34+ progenitors were transduced with shRNA against luciferase or RPS19 and treated with inhibitors at working concentrations for TGFβ inhibition every three days. Cells were counted and CD235+ erythroid cells were assessed by flow cytometry after 15 days. (b) Prior to flow cytometry, 5000 cells per group were taken from differentiating cultures for NLK kinase assay. (c) CD34+ progenitors were transduced with shRNA against luciferase or RPS19 and non-targeting or siRNA against NLK. After sorting, samples were split into two groups and either treated with vehicle or SD208 every three days. After 15 days cells were counted and subject to flow cytometry to compare the expansion of maturing CD235+ erythroid (left panel) and CD11b+ myeloid cells (right panel). (d) Cord Blood CD34+ progenitors were transduced with shRNA against luciferase (left panel) or RPS19 (right panel) differentiated in erythroid media for 15 days alone, or in the presence of SB525334 or SD208 at 5 μM. Cells were counted and CD235+ erythroid (D—upper) and CD11b+ myeloid cell (D—lower) percentages were determined by flow cytometry. The number of erythroid or myeloid cells is expressed as a percentage of the number of that lineage with no cytokine or drug treatment.
FIG. 8. […] Human cord blood CD34+ progenitors were transduced with lentivirus co-expressing GFP with shRNA against luciferase (shLuc), RPS19 (shRPS19) or RPL11 (shRPL11). After 36 hours cells GFP+ cells were differentiated in erythroid media in the presence or absence of 5 μM SD208 for 15 days. Cells were counted and assessed for cell surface expression of CD235. (a) The percentage of CD235+ cells was multiplied by the cell count and values were compared as a percentage of untreated controls. (b) Normalizing values relative to untreated RPS19-insufficiency progenitors facilitates direct comparison of erythropoiesis between untreated and SD208-treated cultures. (c) Approximately 3000 cells were removed from differentiating treatments at day 6 and NLK activity was assessed. Values were normalized to reflect a fold induction relative to untreated controls. (d) Lin-Kit+ hematopoietic progenitors were obtained from three mouse embryos expressing tetracycline-inducible shRNA against RPS19 at day E14.5 or three untreated mice, and thee mature RPL11^+/+ or three mature RPL11^+/lox mice treated with tamoxifen for eight weeks. Cells were grown in the presence or absence of doxycycline and/or SD208 for eight days prior to counting and assessing for ter119 surface expression. Values were expressed as a percentage relative to untreated controls (e) and directly comparing the effect of SD208 on erythropoiesis in ribosomal-insufficiency by expressing values relative to untreated ribosome-insufficient cultures (f). At day 5 approximately 3000 cells were assayed for NLK kinase assay (g). CD34+ HSPCs were isolated from three healthy control and three DBA patient mononuclear bone marrow aspirates by magnetic bead sorting and differentiated in the presence or absence of SD208 for 14 days. After counting the total cell population, the ratio of CD235+ erythroblasts was determined by flow cytometry and number of CD235+ erythroblasts calculated. This was expressed as a percentage of the average number of erythroid cells present in untreated healthy controls. (h) The direct effect of SD208 on erythroid expansion in DBA patient samples was calculated following normalization of untreated DBA patient samples as 1-fold, (i) At day five, 3000 cells from each of the differentiating cultures was analyzed for NLK activity by kinase assay and are expressed as a fold induction relative to untreated healthy controls.

With `Cc1cccc(-c2nn3c(c2-c2ccnc4ccc(C(N)=O)cc24)CCC3)n1` [Galunisertib] the “CD235+ erythroid expansion in RPS19-insufficiency, % of control” value (from here on “CD235+ erythroid expansion … % of control”) was 21% and the “increase of erythroid expansion in RPS19-insufficiency” value (from here on “increase … in RPS19-insufficiency”) was 3.2 fold.

`NC(=O)c1ccc(-c2nc(-c3ccc4c(c3)OCO4)c(-c3ccccn3)[nH]2)cc1` [SB431542] was tested, and the “CD235+ erythroid expansion … % of control” value was 21% and the “increase … in RPS19-insufficiency” value was 3.2 fold.

With `Fc1ccc(Cl)cc1-c1nc(Nc2ccncc2)c2nccnc2n1` [SD208] the “CD235+ erythroid expansion … % of control” value was 41.5%, the “fold increase of erythroid expansion in response to SD208” value (RPL11-insufficiency) was 6.9 fold and the “erythroid expansion, % of untreated controls” value (RPL11-insufficiency, SD208 5 μM, 5.8% untreated) was 36.7%. The “fold increase of erythroid expansion in response to SD208” value (RPS19-insufficiency) was 4.7 fold, the “erythroid expansion, % of untreated controls” value (RPS19-insufficiency, SD208 5 μM, 8.7% untreated) was 38.7% and the “RPS19-insufficient erythroid expansion, fold of non-TGFβ-treated cells” value (TGFβ-treated, SD208 5 μM) was 4.1 fold. The “increase … in RPS19-insufficiency” value was 6.3 fold.
